From patent publication US12551463B2, “Dosing of a Bruton's tyrosine kinase inhibitor” (Loxo Oncology, Inc., priority 2019, dated 2026)

Tests used:
CLL/SLL = test: Phase 1/2 clinical study, CLL/SLL patients; format: in vivo, human
Excerpt: (§1) The study is an open-label, multi-center study of oral BTK-I to evaluate safety and efficacy as monotherapy and as part of combination therapy in patients with CLL/SLL and NHL who have failed or are intolerant to standard of care. This study includes monotherapy as well as combination treatment parts. The monotherapy part includes Phase 1 dose escalation and dose expansion as well as Phase 2. The combination therapy part is a Phase 1b (safety assessment and expansion) of BTK-I in combination with venetoclax, with or without anti-CD20 therapy. Phase 1 dose escalation will proceed prior to start of Phase 1b or Phase 2. Once a recommended Phase 2 dose (RP2D) is identified in Phase 1, enrollment can commence to the Phase 1b combination therapies and Phase 2 monotherapy cohorts.
(§2) The primary objectives of the Phase 1 Dose Escalation and Expansion part of the study is to determine the maximum tolerated dose (MTD)/RP2D of oral BTK-I in patients with previously treated CLL/SLL and B-cell NHL.
(§3) Patients are enrolled with histologically confirmed CLL/SLL or B-cell NHL who have failed or are intolerant to at least two prior standard of care regimens given in combination or sequentially or have received at least one prior BTK inhibitor-containing regimen when BTK inhibitor is approved in first line.
(§4) BTK-I is administered in oral tablet form. Dose escalation will follow a 3+3 design starting with a 25 mg QD dose (followed by 50 mg QD (dose level cohort 2), 100 mg QD (dose level cohort 3), 150 mg QD (dose level cohort 4), 200 mg QD (dose level cohort 5), 250 mg QD (dose level cohort 6), and 300 mg QD (dose level cohort 7)). Cycle length will be 28 days. The drug limiting toxicity (DLT) period will be 28 days, commencing with the first dose of BTK-I.
(§5) The primary objective of the Phase 2 is to assess the primary anti-tumor activity of BTK-I based on overall response rate (ORR) and as assessed by the Independent Review Committee.
(§6) At the RP2D up to ˜600 patients with CLL/SLL or NHL will be enrolled to one of the following cohorts: • Cohort 1: Non-blastoid MCL patients treated with a prior BTK-inhibitor. • Cohort 2: CLL/SLL patients treated with 2 or more prior regimens, including a BTK inhibitor-containing regimen. • Cohort 3: CLL/SLL patients with no prior therapy. • Cohort 4: CLL/SLL patients treated with prior therapy, BTK inhibitor naive. • Cohort 5: WM patients treated with a prior BTK inhibitor containing regimen. • Cohort 6: MZL patients treated with a prior BTK inhibitor containing regimen. • Cohort 7: (Not otherwise specified) defined as CLL/SLL or NHL not otherwise specified in Cohorts 1 through 6, inclusive of CLL/SLL or NHL, Richter's transformation, blastoid MCL, and patients with history of CNS involvement or primary CNS lymphoma.
(§7) Dosing during Phase 2 will be at the RP2D of 200 mg QD. The cycle length will be 28 days. BTK-I will be administered to the Phase 2 patients in oral tablet form at the RP2D. The dose (and schedule) chosen for Phase 2 may be changed by the SRC based on emerging data (e.g., PK, safety, and/or efficacy) as long as the new dose is not greater than the highest dose that has a DLT <33% and is determined to be safe by the SRC in Phase 1. If the RP2D is changed based on emerging data, patients enrolled to Phase 2 at a different dose may have the dose changed to the new dose.

TMD8 BTK WT cells = test: In vivo mouse xenograft study, TMD8 BTK WT; parameters: species or system mice; settings: BTK-I BID alone; BTK WT driven TMD8 (DLBCL) xenograft
Experimental: In all studies, test articles are administered alone and in combination, following different dosing regimens.
Human TMD8 BTK WT, TMD8 BTK C481S or REC-1 cells are injected subcutaneously in the right flank of mice. When tumors reach a mean volume between 150 mm^3 and 400 mm^3, mice are randomized based on their tumor volumes. Mice are next dosed for 14 to 23 days depending on the study design. The potencies of the compounds stand-alone or in combination on the inhibition of the tumor growth are assessed based on the tumor volume changes and weights after collection at the end of the study. Additionally, in the TMD8 studies, the plasma concentrations of test articles are measured at multiple time points after the last dose.

[1] = test system: CLL/SLL, MCL, Waldenstrom's macroglobulinemia and follicular lymphoma patients; test: Human clinical trials of BTK-I: overall response rate in efficacy-evaluable patients; format: in vivo
Experimental: (Mato A., et al., “Toxicities and Outcomes of 616 Ibrutinib-Treated Patients in the United States: A Real-World Analysis”, Haematologica, 2018, 103(5), 874-879.) Between Mar. 21, 2019 and Sep. 27, 2020, across 7 dose levels ranging from 25 mg once daily (QD) to 300 mg QD in 323 patients, the only treatment-emergent adverse events regardless of attribution or grade seen in ≥10% of patients (n=323) were fatigue (n=65, 20%), diarrhea (n=55, 17%), and contusion (n=42, 13%). In 121 efficacy-evaluable cBTKi-treated chronic lymphocytic leukemia (CLL) patients (median prior lines=4), overall response rate (ORR) was 62% (95% CI: 53-71), rising to 84% in patients followed for ≥10 months.

DLBCL = test: Phase 1/2 clinical study, DLBCL patients; format: in vivo, human
Excerpt: as §1, with “cohorts. […]” for “cohorts.”
The primary objective of the Phase 2 is to assess the primary anti-tumor activity of BTK-I based on overall response rate (ORR) and as assessed by the Independent Review Committee. […]
Dosing during Phase 2 will be at the RP2D of 200 mg QD. […] The dose (and schedule) chosen for Phase 2 may be changed by the SRC based on emerging data (e.g., PK, safety, and/or efficacy) as long as the new dose is not greater than the highest dose that has a DLT <33% and is determined to be safe by the SRC in Phase 1. […]

MCL = test: Phase 1/2 clinical study, mantle cell lymphoma patients; format: in vivo, human
Excerpt: as §1, §2, §3, §4, §5, §6, §7

## COc1ccc(F)cc1C(=O)NCc1ccc(-c2nn([C@@H](C)C(F)(F)F)c(N)c2C(N)=O)cc1 [BTK-I, (S)-5-amino-3-(4-((5-fluoro-2-methoxybenzamido)methyl)phenyl)-1-(1,1,1-trifluoropropane-2-yl)-1H-pyrazole-4-carboxamide]
CLL/SLL; 28 patients with 17p deletion, TP53 mutation, or both
  ORR: 79%
CLL/SLL; 121 BTK-pretreated patients, CI: 53-71%
  ORR: 62%
CLL/SLL; 139 efficacy-evaluable CLL/SLL patients, all dose levels, 95% CI: 55-71
  ORR: 63%
CLL/SLL; all CLL/SLL patients
  patients remaining on BTK-I: 88%
CLL/SLL; at ≥10 months (25/29)
  ORR: 86%
CLL/SLL; discontinued covalent BTK inhibitor for progression [53/79]
  ORR: 67%
CLL/SLL; discontinued covalent BTK inhibitor for toxicity or another reason [22/42]
  ORR: 52%
CLL/SLL; followed for at least 8 months (35/49)
  ORR: 71%
CLL/SLL; majority of responding patients
  BTK C481 mutant allele fraction from peripheral blood mononuclear cells: decreased over time
CLL/SLL; of 88 responders (4 progressed, 1 electively discontinued)
  responding patients no longer on therapy: 5
CLL/SLL; of 139, discontinued prior to first response assessment
  non-evaluable (NE), patients: 5
CLL/SLL; of 139 efficacy-evaluable
  PR-L, patients: 19
  partial response (PR), patients: 69
  progressive disease (PD), patients: 1
  stable disease (SD), patients: 45
CLL/SLL; progression on prior covalent BTK inhibitor, with BTK C481 mutation [15/20]
  ORR: 75%
CLL/SLL; progression on prior covalent BTK inhibitor, without BTK C481 mutation [18/30]
  ORR: 60%
TMD8 BTK WT cells
  inhibition of xenograft tumor growth: potently inhibited the growth
[1]; 52 efficacy-evaluable cBTKi-treated MCL patients, 95% CI: 38-66
  ORR: 52%
[1]; 121 efficacy-evaluable cBTKi-treated CLL patients, median prior lines=4, 95% CI: 53-71
  overall response rate (ORR): 62%
[1]; CLL/SLL patients with BTK C481-mutant disease (17/24)
  ORR: 71%
[1]; CLL/SLL patients with BTK-wildtype disease (43/65)
  ORR: 66%
[1]; CLL/SLL patients with cBTKi intolerance (22/42)
  ORR: 52%
[1]; CLL/SLL patients with prior cBTKi resistance (53/79)
  ORR: 67%
[1]; Waldenstrom's macroglobulinemia (WM), n=19
  ORR: 68%
[1]; cBTKi-treated CLL patients followed for ≥10 months
  overall response rate (ORR): 84%
[1]; follicular lymphoma (FL), n=8
  ORR: 50%
[1]; of 117 responding CLL or MCL patients
  responding patients who remain progression-free: all but 8
DLBCL
  responses/patients: 6/25
MCL; 52 patients with prior covalent BTK inhibitor, 95% CI: 38-66
  ORR: 52%
MCL; 56 efficacy-evaluable MCL patients, 95% CI: 38-65
  ORR: 52%
MCL; MCL
  median time to first response: 1.8 months
MCL; all MCL patients
  patients remaining on BTK-I: 57%
MCL; of 29 responders (4 PD, 1 in CR)
  responding patients who discontinued treatment: 5
MCL; of 56 efficacy-evaluable
  CR, patients: 14
  NE, patients: 5
  PD, patients: 12
  PR, patients: 15
MCL; patients with blastoid variant MCL
  responses: 2 of 4
MCL; patients with prior CAR-T
  responses: 2 of 2
MCL; prior autologous or allogeneic transplant (9/14)
  responses: 64%
